# Test results from patent US6673812B1, “Preventives/remedies for glaucoma” (Senju Pharmaceutical Co., Ltd., priority 1998, dated 2004).
# System: Japanese white rabbits
# Assay: Ophthalmic disorder caused by 8-time-a-day instillation to white rabbits: macroscopic observation of anterior segment of the eye
# Type: in vivo, rabbit
# Design: scale not given here
# Settings: mean of three eyes
# Procedure: The test drugs, Compound A and Compound C, were each dissolved in the following base at a concentration of 0.125, 0.25, 0.5 and 1.0% and adjusted to pH 7 for use in this experiment. [table] Japanese white rabbits (body weight about 2 kg) purchased from Japan Laboratory Animals, INC. were used. These animals were bred in a breeding chamber set to temperature 23±3° C., humidity 55±10% and fed on limited amount of 100 g a day of a solid feed (Labo R Stock, Nihon-Nosan Kogyo K.K.). They were allowed free access to tap water. Instillation: Using a micropipet, each test drug (100 μl) was instilled into the right eye of each animal 8 times at one hour intervals. Into the left eye was instilled a base in the same manner. Observation: anterior segment of the eye was macroscopically observed before instillation and 30 min after 2nd, 4th, 6th and 8th administrations, according to the macroscopic criteria for ocular lesions as shown in Table 1 (Naruyuki Fukui, […] no Rinshou 4, 277-289, 1970). In addition, corneal staining spot was observed before instillation and after 8th administration. [table]
# [1] = 0.125%, 30 min after 2nd instillation
# [2] = 0.125%, 30 min after 4th instillation
# [3] = 0.125%, 30 min after 6th instillation
# [4] = 0.125%, 30 min after 8th instillation
# [5] = 0.25%, 30 min after 2nd instillation
# [6] = 0.25%, 30 min after 4th instillation
# [7] = 0.25%, 30 min after 6th instillation
# [8] = 0.25%, 30 min after 8th instillation
# [9] = 0.5%, 30 min after 2nd instillation
# [10] = 0.5%, 30 min after 4th instillation
# [11] = 0.5%, 30 min after 6th instillation
# [12] = 0.5%, 30 min after 8th instillation
# [13] = 1.0%, 30 min after 2nd instillation
# [14] = 1.0%, 30 min after 4th instillation
# [15] = 1.0%, 30 min after 6th instillation
# [16] = 1.0%, 30 min after 8th instillation
smiles,measurement,setting,value
"CC(N)[C@H]1CC[C@H](C(=O)Nc2ccncc2)CC1.Cl.Cl.O (single isomer, unassigned; (+)) [Compound A, (+)-trans-4-(1-Aminoethyl)-1-(4-pyridylcarbamoyl)cyclohexane 2HCl 1H2O]",Score of ocular lesions: Conjunctiva Bulbar redness,[1],0.33
same,Score of ocular lesions: Conjunctiva Discharge,[1],0
same,Score of ocular lesions: Conjunctiva Nictitating membrane,[1],0
same,Score of ocular lesions: Conjunctiva Palpebral edema,[1],0
same,Score of ocular lesions: Conjunctiva Palpebral redness,[1],0.17
same,Score of ocular lesions: Cornea Area,[1],0
same,Score of ocular lesions: Cornea Degree,[1],0
same,Score of ocular lesions: Iris Values,[1],0
same,Score of ocular lesions: Total score,[1],0.50
same,Score of ocular lesions: Conjunctiva Bulbar redness,[2],0.33
same,Score of ocular lesions: Conjunctiva Discharge,[2],0.17
same,Score of ocular lesions: Conjunctiva Nictitating membrane,[2],0
same,Score of ocular lesions: Conjunctiva Palpebral edema,[2],0
same,Score of ocular lesions: Conjunctiva Palpebral redness,[2],0
same,Score of ocular lesions: Cornea Area,[2],0
same,Score of ocular lesions: Cornea Degree,[2],0
same,Score of ocular lesions: Iris Values,[2],0
same,Score of ocular lesions: Total score,[2],0.50
same,Score of ocular lesions: Conjunctiva Bulbar redness,[3],0.33
same,Score of ocular lesions: Conjunctiva Discharge,[3],0.50
same,Score of ocular lesions: Conjunctiva Nictitating membrane,[3],0
same,Score of ocular lesions: Conjunctiva Palpebral edema,[3],0.33
same,Score of ocular lesions: Conjunctiva Palpebral redness,[3],0.33
same,Score of ocular lesions: Cornea Area,[3],0
same,Score of ocular lesions: Cornea Degree,[3],0
same,Score of ocular lesions: Iris Values,[3],0
same,Score of ocular lesions: Total score,[3],1.99
same,Score of ocular lesions: Conjunctiva Bulbar redness,[4],0.33
same,Score of ocular lesions: Conjunctiva Discharge,[4],0
same,Score of ocular lesions: Conjunctiva Nictitating membrane,[4],0.17
same,Score of ocular lesions: Conjunctiva Palpebral edema,[4],0.50
same,Score of ocular lesions: Conjunctiva Palpebral redness,[4],0.33
same,Score of ocular lesions: Cornea Area,[4],0
same,Score of ocular lesions: Cornea Degree,[4],0
same,Score of ocular lesions: Iris Values,[4],0
same,Score of ocular lesions: Total score,[4],1.33
same,Score of ocular lesions: Conjunctiva Bulbar redness,"0.125%, Before instillation",0
same,Score of ocular lesions: Conjunctiva Discharge,"0.125%, Before instillation",0
same,Score of ocular lesions: Conjunctiva Nictitating membrane,"0.125%, Before instillation",0
same,Score of ocular lesions: Conjunctiva Palpebral edema,"0.125%, Before instillation",0
same,Score of ocular lesions: Conjunctiva Palpebral redness,"0.125%, Before instillation",0
same,Score of ocular lesions: Cornea Area,"0.125%, Before instillation",0
same,Score of ocular lesions: Cornea Degree,"0.125%, Before instillation",0
same,Score of ocular lesions: Iris Values,"0.125%, Before instillation",0
same,Score of ocular lesions: Total score,"0.125%, Before instillation",0
same,Score of ocular lesions: Conjunctiva Bulbar redness,[5],0.50
same,Score of ocular lesions: Conjunctiva Discharge,[5],0
same,Score of ocular lesions: Conjunctiva Nictitating membrane,[5],0.17
same,Score of ocular lesions: Conjunctiva Palpebral edema,[5],0
same,Score of ocular lesions: Conjunctiva Palpebral redness,[5],0.17
same,Score of ocular lesions: Cornea Area,[5],0
same,Score of ocular lesions: Cornea Degree,[5],0
same,Score of ocular lesions: Iris Values,[5],0
same,Score of ocular lesions: Total score,[5],0.84
same,Score of ocular lesions: Conjunctiva Bulbar redness,[6],0.50
same,Score of ocular lesions: Conjunctiva Discharge,[6],0.17
same,Score of ocular lesions: Conjunctiva Nictitating membrane,[6],0.50
same,Score of ocular lesions: Conjunctiva Palpebral edema,[6],0
same,Score of ocular lesions: Conjunctiva Palpebral redness,[6],0
same,Score of ocular lesions: Cornea Area,[6],0
same,Score of ocular lesions: Cornea Degree,[6],0
same,Score of ocular lesions: Iris Values,[6],0
same,Score of ocular lesions: Total score,[6],1.00
same,Score of ocular lesions: Conjunctiva Bulbar redness,[7],0.50
same,Score of ocular lesions: Conjunctiva Discharge,[7],0.50
same,Score of ocular lesions: Conjunctiva Nictitating membrane,[7],0.50
same,Score of ocular lesions: Conjunctiva Palpebral edema,[7],0.17
same,Score of ocular lesions: Conjunctiva Palpebral redness,[7],0.33
same,Score of ocular lesions: Cornea Area,[7],0
same,Score of ocular lesions: Cornea Degree,[7],0
same,Score of ocular lesions: Iris Values,[7],0
same,Score of ocular lesions: Total score,[7],1.50
same,Score of ocular lesions: Conjunctiva Bulbar redness,[8],0.83
same,Score of ocular lesions: Conjunctiva Discharge,[8],0
same,Score of ocular lesions: Conjunctiva Nictitating membrane,[8],0.50
same,Score of ocular lesions: Conjunctiva Palpebral edema,[8],0
same,Score of ocular lesions: Conjunctiva Palpebral redness,[8],0.33
same,Score of ocular lesions: Cornea Area,[8],0
same,Score of ocular lesions: Cornea Degree,[8],0
same,Score of ocular lesions: Iris Values,[8],0
same,Score of ocular lesions: Total score,[8],1.66
same,Score of ocular lesions: Conjunctiva Bulbar redness,"0.25%, Before instillation",0
same,Score of ocular lesions: Conjunctiva Discharge,"0.25%, Before instillation",0
same,Score of ocular lesions: Conjunctiva Nictitating membrane,"0.25%, Before instillation",0
same,Score of ocular lesions: Conjunctiva Palpebral edema,"0.25%, Before instillation",0
same,Score of ocular lesions: Conjunctiva Palpebral redness,"0.25%, Before instillation",0
same,Score of ocular lesions: Cornea Area,"0.25%, Before instillation",0
same,Score of ocular lesions: Cornea Degree,"0.25%, Before instillation",0
same,Score of ocular lesions: Iris Values,"0.25%, Before instillation",0
same,Score of ocular lesions: Total score,"0.25%, Before instillation",0
same,Score of ocular lesions: Conjunctiva Bulbar redness,[9],0.50
same,Score of ocular lesions: Conjunctiva Discharge,[9],0
same,Score of ocular lesions: Conjunctiva Nictitating membrane,[9],0
same,Score of ocular lesions: Conjunctiva Palpebral edema,[9],0.17
same,Score of ocular lesions: Conjunctiva Palpebral redness,[9],0.17
same,Score of ocular lesions: Cornea Area,[9],0
same,Score of ocular lesions: Cornea Degree,[9],0
same,Score of ocular lesions: Iris Values,[9],0
same,Score of ocular lesions: Total score,[9],0.49
same,Score of ocular lesions: Conjunctiva Bulbar redness,[10],0.50
same,Score of ocular lesions: Conjunctiva Discharge,[10],0.33
same,Score of ocular lesions: Conjunctiva Nictitating membrane,[10],0.33
same,Score of ocular lesions: Conjunctiva Palpebral edema,[10],0.17
same,Score of ocular lesions: Conjunctiva Palpebral redness,[10],0.17
same,Score of ocular lesions: Cornea Area,[10],0
same,Score of ocular lesions: Cornea Degree,[10],0
same,Score of ocular lesions: Iris Values,[10],0
same,Score of ocular lesions: Total score,[10],1.50
same,Score of ocular lesions: Conjunctiva Bulbar redness,[11],0.50
same,Score of ocular lesions: Conjunctiva Discharge,[11],2.67
same,Score of ocular lesions: Conjunctiva Nictitating membrane,[11],0.50
same,Score of ocular lesions: Conjunctiva Palpebral edema,[11],0.83
same,Score of ocular lesions: Conjunctiva Palpebral redness,[11],0.67
same,Score of ocular lesions: Cornea Area,[11],0
same,Score of ocular lesions: Cornea Degree,[11],0
same,Score of ocular lesions: Iris Values,[11],0
same,Score of ocular lesions: Total score,[11],5.17
same,Score of ocular lesions: Conjunctiva Bulbar redness,[12],0.83
same,Score of ocular lesions: Conjunctiva Discharge,[12],1.17
same,Score of ocular lesions: Conjunctiva Nictitating membrane,[12],0.67
same,Score of ocular lesions: Conjunctiva Palpebral edema,[12],0.67
same,Score of ocular lesions: Conjunctiva Palpebral redness,[12],0.67
same,Score of ocular lesions: Cornea Area,[12],0
same,Score of ocular lesions: Cornea Degree,[12],0
same,Score of ocular lesions: Iris Values,[12],0
same,Score of ocular lesions: Total score,[12],4.01
same,Score of ocular lesions: Conjunctiva Bulbar redness,"0.5%, Before instillation",0.17
same,Score of ocular lesions: Conjunctiva Discharge,"0.5%, Before instillation",0
same,Score of ocular lesions: Conjunctiva Nictitating membrane,"0.5%, Before instillation",0
same,Score of ocular lesions: Conjunctiva Palpebral edema,"0.5%, Before instillation",0
same,Score of ocular lesions: Conjunctiva Palpebral redness,"0.5%, Before instillation",0
same,Score of ocular lesions: Cornea Area,"0.5%, Before instillation",0
same,Score of ocular lesions: Cornea Degree,"0.5%, Before instillation",0
same,Score of ocular lesions: Iris Values,"0.5%, Before instillation",0
same,Score of ocular lesions: Total score,"0.5%, Before instillation",0.17
same,Score of ocular lesions: Conjunctiva Bulbar redness,[13],0.50
same,Score of ocular lesions: Conjunctiva Discharge,[13],0.33
same,Score of ocular lesions: Conjunctiva Nictitating membrane,[13],0.17
same,Score of ocular lesions: Conjunctiva Palpebral edema,[13],0.67
same,Score of ocular lesions: Conjunctiva Palpebral redness,[13],0.50
same,Score of ocular lesions: Cornea Area,[13],0
same,Score of ocular lesions: Cornea Degree,[13],0
same,Score of ocular lesions: Iris Values,[13],0
same,Score of ocular lesions: Total score,[13],2.17
same,Score of ocular lesions: Conjunctiva Bulbar redness,[14],0.50
same,Score of ocular lesions: Conjunctiva Discharge,[14],0.67
same,Score of ocular lesions: Conjunctiva Nictitating membrane,[14],0.50
same,Score of ocular lesions: Conjunctiva Palpebral edema,[14],0.67
same,Score of ocular lesions: Conjunctiva Palpebral redness,[14],0.50
same,Score of ocular lesions: Cornea Area,[14],0
same,Score of ocular lesions: Cornea Degree,[14],0
same,Score of ocular lesions: Iris Values,[14],0
same,Score of ocular lesions: Total score,[14],2.84
same,Score of ocular lesions: Conjunctiva Bulbar redness,[15],1.17
same,Score of ocular lesions: Conjunctiva Discharge,[15],1.67
same,Score of ocular lesions: Conjunctiva Nictitating membrane,[15],0.67
same,Score of ocular lesions: Conjunctiva Palpebral edema,[15],1.33
same,Score of ocular lesions: Conjunctiva Palpebral redness,[15],0.83
same,Score of ocular lesions: Cornea Area,[15],0
same,Score of ocular lesions: Cornea Degree,[15],0
same,Score of ocular lesions: Iris Values,[15],0
same,Score of ocular lesions: Total score,[15],5.67
same,Score of ocular lesions: Conjunctiva Bulbar redness,[16],1.50
same,Score of ocular lesions: Conjunctiva Discharge,[16],2.33
same,Score of ocular lesions: Conjunctiva Nictitating membrane,[16],1.67
same,Score of ocular lesions: Conjunctiva Palpebral edema,[16],3.00
same,Score of ocular lesions: Conjunctiva Palpebral redness,[16],2.17
same,Score of ocular lesions: Cornea Area,[16],0
same,Score of ocular lesions: Cornea Degree,[16],0
same,Score of ocular lesions: Iris Values,[16],0
same,Score of ocular lesions: Total score,[16],10.67
same,Score of ocular lesions: Conjunctiva Bulbar redness,"1.0%, Before instillation",0
same,Score of ocular lesions: Conjunctiva Discharge,"1.0%, Before instillation",0
same,Score of ocular lesions: Conjunctiva Nictitating membrane,"1.0%, Before instillation",0
same,Score of ocular lesions: Conjunctiva Palpebral edema,"1.0%, Before instillation",0
same,Score of ocular lesions: Conjunctiva Palpebral redness,"1.0%, Before instillation",0.17
same,Score of ocular lesions: Cornea Area,"1.0%, Before instillation",0
same,Score of ocular lesions: Cornea Degree,"1.0%, Before instillation",0
same,Score of ocular lesions: Iris Values,"1.0%, Before instillation",0
same,Score of ocular lesions: Total score,"1.0%, Before instillation",0.17
